Assay results published in ChEMBL document CHEMBL2169811, “Oncoepigenomics: making histone lysine methylation count” (Eur J Med Chem, 2012).

Key:
[1] = Inhibition of Drosophila melanogaster SET7/9
[2] = molecular target: T1, Histone-lysine N-methyltransferase Set8 (Drosophila melanogaster, UniProt Q9VFK6); assay: Inhibition of Drosophila melanogaster PRSET7
T1 sequence (Q9VFK6 whole entry): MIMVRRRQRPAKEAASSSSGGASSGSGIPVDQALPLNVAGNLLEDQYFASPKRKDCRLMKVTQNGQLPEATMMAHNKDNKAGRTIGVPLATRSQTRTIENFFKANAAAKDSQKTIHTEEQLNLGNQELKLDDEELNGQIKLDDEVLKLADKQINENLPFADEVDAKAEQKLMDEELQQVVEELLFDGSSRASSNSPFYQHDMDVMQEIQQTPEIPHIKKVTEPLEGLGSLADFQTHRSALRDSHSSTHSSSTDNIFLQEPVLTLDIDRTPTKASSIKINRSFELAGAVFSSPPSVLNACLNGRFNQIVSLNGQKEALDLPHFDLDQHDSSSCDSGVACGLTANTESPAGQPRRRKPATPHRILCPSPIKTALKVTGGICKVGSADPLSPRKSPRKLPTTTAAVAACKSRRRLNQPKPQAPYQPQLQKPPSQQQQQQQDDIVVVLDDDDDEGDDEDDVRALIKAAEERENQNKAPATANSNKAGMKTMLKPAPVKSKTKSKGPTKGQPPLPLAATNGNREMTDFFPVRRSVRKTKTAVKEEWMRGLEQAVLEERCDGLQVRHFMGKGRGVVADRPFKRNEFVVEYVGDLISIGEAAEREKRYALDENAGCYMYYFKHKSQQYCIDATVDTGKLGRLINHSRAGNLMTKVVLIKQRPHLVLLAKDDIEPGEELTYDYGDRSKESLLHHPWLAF

[3] = Inhibition of Neurospora crassa dim5
[4] = molecular target: Histone-lysine N-methyltransferase E(z) (Drosophila melanogaster, UniProt P42124); assay: Inhibition of Drosophila melanogaster E(Z)
[5] = molecular target: T2, Histone-lysine N-methyltransferase SUV39H1 (Homo sapiens, UniProt O43463); assay: Inhibition of human SUV39H1
T2 sequence (O43463 whole entry): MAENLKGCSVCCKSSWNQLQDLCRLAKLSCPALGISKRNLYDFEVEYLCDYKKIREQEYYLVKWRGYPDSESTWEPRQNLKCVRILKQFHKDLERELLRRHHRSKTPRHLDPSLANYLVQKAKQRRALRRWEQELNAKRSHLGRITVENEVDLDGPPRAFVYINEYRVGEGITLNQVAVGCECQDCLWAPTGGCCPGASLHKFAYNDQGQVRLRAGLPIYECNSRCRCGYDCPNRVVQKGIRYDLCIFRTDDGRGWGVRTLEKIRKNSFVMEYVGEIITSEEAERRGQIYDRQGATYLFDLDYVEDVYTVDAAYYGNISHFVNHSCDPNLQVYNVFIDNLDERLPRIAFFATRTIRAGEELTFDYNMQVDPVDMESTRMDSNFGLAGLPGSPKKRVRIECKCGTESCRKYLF

[6] = molecular target: T3, Histone-lysine N-methyltransferase EHMT2 (Homo sapiens, UniProt Q96KQ7)
T3 sequence (Q96KQ7 whole entry): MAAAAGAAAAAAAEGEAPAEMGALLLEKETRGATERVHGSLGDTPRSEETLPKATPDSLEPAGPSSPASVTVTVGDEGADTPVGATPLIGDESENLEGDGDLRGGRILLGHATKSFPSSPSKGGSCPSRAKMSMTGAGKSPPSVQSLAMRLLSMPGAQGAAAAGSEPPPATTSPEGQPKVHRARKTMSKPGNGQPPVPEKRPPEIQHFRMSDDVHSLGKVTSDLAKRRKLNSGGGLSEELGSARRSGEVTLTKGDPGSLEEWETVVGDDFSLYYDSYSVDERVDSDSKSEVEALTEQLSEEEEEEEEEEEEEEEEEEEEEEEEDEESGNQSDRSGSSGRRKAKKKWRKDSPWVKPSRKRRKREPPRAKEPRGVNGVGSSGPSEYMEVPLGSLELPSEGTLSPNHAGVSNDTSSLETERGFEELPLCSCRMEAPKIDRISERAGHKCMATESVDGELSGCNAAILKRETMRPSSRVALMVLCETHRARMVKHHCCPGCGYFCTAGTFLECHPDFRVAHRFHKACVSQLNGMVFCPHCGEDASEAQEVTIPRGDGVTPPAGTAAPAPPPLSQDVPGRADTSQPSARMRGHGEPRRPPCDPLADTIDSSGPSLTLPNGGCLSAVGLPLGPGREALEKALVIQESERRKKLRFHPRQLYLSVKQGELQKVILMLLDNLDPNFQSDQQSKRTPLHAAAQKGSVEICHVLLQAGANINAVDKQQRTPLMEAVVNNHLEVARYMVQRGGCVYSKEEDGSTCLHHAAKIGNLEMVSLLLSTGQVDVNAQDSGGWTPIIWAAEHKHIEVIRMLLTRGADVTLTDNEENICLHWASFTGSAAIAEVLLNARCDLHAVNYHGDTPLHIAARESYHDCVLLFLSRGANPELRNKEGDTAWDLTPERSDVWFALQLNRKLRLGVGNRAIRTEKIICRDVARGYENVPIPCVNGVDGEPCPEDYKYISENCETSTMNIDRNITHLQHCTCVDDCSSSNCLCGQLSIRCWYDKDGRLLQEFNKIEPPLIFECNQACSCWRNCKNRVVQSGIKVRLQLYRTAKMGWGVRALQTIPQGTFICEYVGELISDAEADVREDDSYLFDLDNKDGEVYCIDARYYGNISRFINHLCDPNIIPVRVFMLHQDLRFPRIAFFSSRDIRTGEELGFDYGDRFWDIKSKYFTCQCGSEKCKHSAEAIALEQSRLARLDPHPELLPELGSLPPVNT
Description: Inhibition of GST-tagged G9a after 1 hr by radioactive filter-binding assay

[7] = molecular target: T3, Histone-lysine N-methyltransferase EHMT2; assay: Inhibition of human recombinant G9a catalytic domain amino acid 913 to 1193 expressed in Escherichia coli BL21 (DE3) by mass spectrophotometric assay
[8] = molecular target: T4, Histone-lysine N-methyltransferase EHMT1 (Homo sapiens, UniProt Q9H9B1); assay: Binding affinity to human recombinant GLP catalytic domain amino acid 951 to 1235 expressed in Escherichia coli BL21 (DE3) by isothermal titration calorimetry assay
T4 sequence (Q9H9B1 whole entry): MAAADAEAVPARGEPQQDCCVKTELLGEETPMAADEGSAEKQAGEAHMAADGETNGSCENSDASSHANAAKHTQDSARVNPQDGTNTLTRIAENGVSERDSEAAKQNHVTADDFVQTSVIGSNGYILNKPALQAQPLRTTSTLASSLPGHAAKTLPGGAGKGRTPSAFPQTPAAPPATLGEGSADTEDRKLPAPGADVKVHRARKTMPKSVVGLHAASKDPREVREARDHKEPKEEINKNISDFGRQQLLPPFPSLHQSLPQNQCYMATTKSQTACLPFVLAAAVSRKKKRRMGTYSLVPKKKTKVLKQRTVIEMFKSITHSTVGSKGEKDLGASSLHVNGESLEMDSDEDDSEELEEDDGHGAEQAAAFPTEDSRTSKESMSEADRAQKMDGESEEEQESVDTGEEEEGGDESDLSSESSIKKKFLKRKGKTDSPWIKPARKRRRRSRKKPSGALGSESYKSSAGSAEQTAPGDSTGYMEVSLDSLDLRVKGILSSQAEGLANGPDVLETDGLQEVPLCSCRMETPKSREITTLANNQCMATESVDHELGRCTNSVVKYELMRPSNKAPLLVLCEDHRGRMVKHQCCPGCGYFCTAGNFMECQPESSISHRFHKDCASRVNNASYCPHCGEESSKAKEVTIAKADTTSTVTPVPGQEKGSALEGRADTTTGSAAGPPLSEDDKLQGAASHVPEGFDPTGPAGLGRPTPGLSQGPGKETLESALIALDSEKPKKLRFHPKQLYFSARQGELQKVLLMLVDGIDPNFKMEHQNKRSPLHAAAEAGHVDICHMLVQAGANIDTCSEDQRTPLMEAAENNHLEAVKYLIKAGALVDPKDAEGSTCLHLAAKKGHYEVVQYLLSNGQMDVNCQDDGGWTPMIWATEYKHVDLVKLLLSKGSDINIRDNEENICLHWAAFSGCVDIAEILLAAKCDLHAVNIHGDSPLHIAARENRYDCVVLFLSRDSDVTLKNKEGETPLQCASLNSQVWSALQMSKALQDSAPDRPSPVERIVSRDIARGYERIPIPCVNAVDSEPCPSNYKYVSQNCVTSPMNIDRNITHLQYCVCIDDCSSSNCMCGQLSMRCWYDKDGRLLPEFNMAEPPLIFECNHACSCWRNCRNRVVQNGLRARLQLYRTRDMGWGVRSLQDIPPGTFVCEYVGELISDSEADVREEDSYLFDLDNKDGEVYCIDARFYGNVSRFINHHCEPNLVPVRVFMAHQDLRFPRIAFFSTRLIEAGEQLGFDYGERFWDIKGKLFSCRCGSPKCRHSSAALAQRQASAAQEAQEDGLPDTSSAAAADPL

[9] = molecular target: T3, Histone-lysine N-methyltransferase EHMT2; assay: Binding affinity to human recombinant G9a catalytic domain amino acid 913 to 1193 expressed in Escherichia coli BL21 (DE3) by isothermal titration calorimetry assay

Histone-lysine N-methyltransferase E(z), sequence (P42124 whole entry): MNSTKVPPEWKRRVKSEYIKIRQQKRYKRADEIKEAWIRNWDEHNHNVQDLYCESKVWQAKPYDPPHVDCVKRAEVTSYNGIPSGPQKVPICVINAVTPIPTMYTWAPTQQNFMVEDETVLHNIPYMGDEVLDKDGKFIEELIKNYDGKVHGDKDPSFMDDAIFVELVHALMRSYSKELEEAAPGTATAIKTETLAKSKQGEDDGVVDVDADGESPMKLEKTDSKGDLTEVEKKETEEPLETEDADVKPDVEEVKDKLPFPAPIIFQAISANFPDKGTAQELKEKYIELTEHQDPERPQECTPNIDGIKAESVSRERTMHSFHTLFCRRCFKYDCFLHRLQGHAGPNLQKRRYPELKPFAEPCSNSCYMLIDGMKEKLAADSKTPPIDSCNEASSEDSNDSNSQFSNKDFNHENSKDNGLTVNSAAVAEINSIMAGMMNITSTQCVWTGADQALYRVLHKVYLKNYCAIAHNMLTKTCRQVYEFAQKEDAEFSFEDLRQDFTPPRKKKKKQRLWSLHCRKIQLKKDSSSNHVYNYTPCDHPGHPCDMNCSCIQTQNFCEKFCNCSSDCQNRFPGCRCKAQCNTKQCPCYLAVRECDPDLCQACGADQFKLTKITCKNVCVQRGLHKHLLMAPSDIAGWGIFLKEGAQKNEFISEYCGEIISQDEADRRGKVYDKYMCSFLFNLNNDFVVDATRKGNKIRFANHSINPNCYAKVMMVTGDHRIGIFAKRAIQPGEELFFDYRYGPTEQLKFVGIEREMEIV

Row | IC50 [7] [nM] | Kd [8] [nM] | Kd [9] [nM] | Compound | IC50 [1] [µM] | IC50 [2] [µM] | IC50 [3] [nM] | IC50 [4] [µM] | IC50 [5] [nM] | IC50 [6] [nM]
1 | – | – | – | CN1C(=O)[C@@]23C[C@]4([C@]56C[C@@]78SS[C@@](CO)(C(=O)N7[C@H]5Nc5ccccc56)N(C)C8=O)c5ccccc5N[C@@H]4N2C(=O)[C@]1(CO)SS3 [CHAETOCIN] | > 90 | > 90 | 3000 | > 90 | 800 | 2400
2 | 1300 | 136 | 164 | COc1cc2c(NC3CCN(CCCCCN)CC3)nc(NCCCN(C)C)nc2cc1OCCCCCN | – | – | – | – | – | –
